According to patent publication US12649750B2, “Macrocyclic compounds, compositions, and methods of using thereof” (Sionna Therapeutics Inc., priority 2022, dated 2026):

Columns and labels:
NBD1 = biological target: T1, NBD1 (Homo sapiens, UniProt P13569); assay: Aggregation analysis using differential static light scattering (DSLS), thermal stability of NBD1 (ΔTagg); assay type: binding; settings: ΔTagg versus DMSO control, NBD1 0.2 mg/ml
T1 construct: Purified recombinant NBD1 was produced using previously described methods; made in house
T1 sequence (P13569 423-646 limits assumed): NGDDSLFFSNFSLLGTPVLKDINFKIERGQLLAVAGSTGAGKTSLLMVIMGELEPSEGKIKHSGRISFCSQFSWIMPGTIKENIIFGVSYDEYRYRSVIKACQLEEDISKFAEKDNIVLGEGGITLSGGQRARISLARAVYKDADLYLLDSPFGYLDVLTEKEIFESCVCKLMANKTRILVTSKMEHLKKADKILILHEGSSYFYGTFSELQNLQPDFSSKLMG
In short: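 NBD1 0.2 mg/ml, S200 buffer (50 mM Tris-HCl, 150 mM NaCl, 5 mM MgCl2, 2 mM ATP, 2 mM DTT, pH7.6) + 1% glycerol; cpd in DMSO; oil overlay. Ramp 25→70° C. at 1° C./min, DSLS images every 0.5° C. ΔTagg = Tagg (inflection) − mean DMSO Tagg.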

CFTR = biological target: T2, CFTR (Homo sapiens, UniProt P13569, DEL508-508); assay: TECC24 AUC fold over DMSO @10 μM, CFTR-mediated transepithelial chloride transport in CF-HBE cells; assay type: cell-based; settings: test agent AUC divided by DMSO vehicle AUC, primary CF-HBE cells, ΔF508 homozygous donor, 48 hours incubation
T2 construct: Primary human bronchial epithelial cells from a ΔF508 homozygous CF donor; host or cells: primary human bronchial epithelial cells (CF-HBE), ΔF508 homozygous donor
T2 sequence (P13569 with tags, fused parts or gaps DEL508-508): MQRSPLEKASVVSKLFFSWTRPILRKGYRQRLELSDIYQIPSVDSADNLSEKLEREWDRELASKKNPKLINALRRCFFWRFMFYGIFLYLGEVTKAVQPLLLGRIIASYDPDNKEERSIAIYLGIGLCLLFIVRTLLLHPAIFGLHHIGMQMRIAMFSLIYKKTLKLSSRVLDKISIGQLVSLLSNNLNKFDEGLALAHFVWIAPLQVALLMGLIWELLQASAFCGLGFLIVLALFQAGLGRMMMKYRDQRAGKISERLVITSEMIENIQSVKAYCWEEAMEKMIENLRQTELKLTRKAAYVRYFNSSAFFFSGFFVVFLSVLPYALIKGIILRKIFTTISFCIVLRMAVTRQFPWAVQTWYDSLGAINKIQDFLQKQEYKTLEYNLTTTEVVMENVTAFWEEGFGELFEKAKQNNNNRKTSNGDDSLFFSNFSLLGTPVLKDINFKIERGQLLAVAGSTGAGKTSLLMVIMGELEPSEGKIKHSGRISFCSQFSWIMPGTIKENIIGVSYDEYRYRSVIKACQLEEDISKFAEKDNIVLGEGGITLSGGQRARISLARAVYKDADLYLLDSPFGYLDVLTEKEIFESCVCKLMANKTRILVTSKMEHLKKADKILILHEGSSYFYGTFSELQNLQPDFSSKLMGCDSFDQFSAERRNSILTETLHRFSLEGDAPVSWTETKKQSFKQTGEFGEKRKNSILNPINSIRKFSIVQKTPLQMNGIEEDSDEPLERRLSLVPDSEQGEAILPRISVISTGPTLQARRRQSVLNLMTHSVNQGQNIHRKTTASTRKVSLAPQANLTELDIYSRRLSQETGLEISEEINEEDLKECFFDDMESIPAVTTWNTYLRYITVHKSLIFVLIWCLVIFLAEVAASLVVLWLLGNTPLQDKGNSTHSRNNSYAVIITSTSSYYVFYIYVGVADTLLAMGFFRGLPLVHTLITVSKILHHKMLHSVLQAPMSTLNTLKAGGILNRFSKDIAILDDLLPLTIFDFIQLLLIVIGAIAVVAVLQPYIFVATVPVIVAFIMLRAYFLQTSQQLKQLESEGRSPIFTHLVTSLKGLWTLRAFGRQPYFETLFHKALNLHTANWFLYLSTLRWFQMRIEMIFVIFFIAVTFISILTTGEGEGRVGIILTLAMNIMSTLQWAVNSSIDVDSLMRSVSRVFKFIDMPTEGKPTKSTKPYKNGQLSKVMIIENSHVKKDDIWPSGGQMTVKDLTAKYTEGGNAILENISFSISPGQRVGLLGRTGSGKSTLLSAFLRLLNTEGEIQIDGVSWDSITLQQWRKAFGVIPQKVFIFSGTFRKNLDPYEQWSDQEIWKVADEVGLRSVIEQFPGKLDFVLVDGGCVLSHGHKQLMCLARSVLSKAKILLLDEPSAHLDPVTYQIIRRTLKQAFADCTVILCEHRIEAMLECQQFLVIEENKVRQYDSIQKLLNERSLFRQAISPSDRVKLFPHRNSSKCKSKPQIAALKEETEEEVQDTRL
In short: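 Primary ΔF508-homozygous CF bronchial epithelial cells on inserts were incubated 48 h at 36.5 °C with compound in IL-13-containing medium. VT and TEER were then recorded in current-clamp mode (pH 7.4 HEPES bath) with benzamil 10 μM, forskolin 10 μM, then CFTR inhibitor-172 20 μM. The IEQ AUC between forskolin and inhibitor was divided by vehicle AUC.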

SMILES | DSLS 3D (100 μM ΔT) (NBD1) | TECC (AUC, 10 μM) (CFTR)
C[C@@H](Cc1cccc(C2(C)CCCC(C)(C)CS(=O)(=O)CCc3c(c(F)cc4[nH]ccc34)Oc3ccnc(c3)-c3nc2nn3C)n1)C(=O)O (single isomer, unassigned) [Compound 266B] | C (a value greater than 10 °C and less than or equal to 25 °C is marked “C”) | C (a value between 20 and 80 is marked “C”)
C[C@H](Cc1cccc([C@@]2(C)CCCC(C)(C)CS(=O)(=O)CCc3c(c(F)c(F)c4[nH]ccc34)[S+]([O-])c3ccnc(c3)-c3nc2nn3C)c1)C(=O)O (single isomer, unassigned) [Compound 269] | C (a value greater than 10 °C and less than or equal to 25 °C is marked “C”) | C (a value between 20 and 80 is marked “C”)
Cn1nc2nc1-c1cc(ccn1)[S+]([O-])c1c(F)cc3[nH]ccc3c1CCS(=O)(=O)CC(C)(C)CCC[C@]2(C)c1cccc(CC2(C(=O)O)CC2)c1 (single isomer, unassigned) [Compound 271] | C (a value greater than 10 °C and less than or equal to 25 °C is marked “C”) | C (a value between 20 and 80 is marked “C”)
Cn1nc2nc1-c1cc(ccn1)[S+]([O-])c1c(F)c(F)c3[nH]ccc3c1CCS(=O)(=O)CC(C)(C)CCC[C@]2(C)c1cccc(CC(C)(C)C(=O)O)c1 (single isomer, unassigned) [Compound 274] | C (a value greater than 10 °C and less than or equal to 25 °C is marked “C”) | C (a value between 20 and 80 is marked “C”)
Cn1nc2nc1-c1cc(ccn1)[S+]([O-])c1c(F)c(F)c3[nH]ccc3c1CCS(=O)(=O)CC(C)(C)CCC[C@]2(C)c1cccc(CCC(=O)O)c1 (single isomer, unassigned) [Compound 281] | C (a value greater than 10 °C and less than or equal to 25 °C is marked “C”) | C (a value between 20 and 80 is marked “C”)
COCC(Cc1cccc([C@@]2(C)CCCC(C)(C)CS(=O)(=O)CCc3c(c(F)cc4[nH]ccc34)Oc3ccnc(c3)-c3nc2nn3C)c1)C(=O)O (single isomer, unassigned) [Compound 284] | C (a value greater than 10 °C and less than or equal to 25 °C is marked “C”) | C (a value between 20 and 80 is marked “C”)
COCC(Cc1cccc([C@@]2(C)CCCC(C)(C)CS(=O)(=O)CCc3c(c(F)cc4[nH]ccc34)Oc3ccnc(c3)-c3nc2nn3C)c1)C(=O)O (single isomer, unassigned) [Compound 285] | C (a value greater than 10 °C and less than or equal to 25 °C is marked “C”) | C (a value between 20 and 80 is marked “C”)
Cn1nc2nc1-c1cc(ccn1)[S+]([O-])c1c(F)c(F)c3[nH]ccc3c1CCS(=O)(=O)CC(C)(C)CCC[C@]2(C)c1cccc(CC(O)CO)c1 (stereo in doubt) [Compound 292, (2R)-3-[3-[(6R)-21,22-difluoro-3,6,10,10-tetramethyl-12,12,24-trioxo-12λ6,24λ4-dithia-3,4,19,28,30-pentazapentacyclo[23.3.1.12,5.015,23.016,20]triaconta-1(29),2(30),4,15,17,20,22,25,27-nonaen-6-yl]phenyl]propane-1,2-diol] | C (a value greater than 10 °C and less than or equal to 25 °C is marked “C”) | C (a value between 20 and 80 is marked “C”)
Cn1nc2nc1-c1cc(ccc1F)Oc1c(F)cc3[nH]ccc3c1CCS(=O)(=O)CC(C)(C)CCCC2(C)c1cccc(CC(=O)O)c1 (stereo not shown) [Compound 3, 2-[3-(22,28-Difluoro-3,6,10,10-tetramethyl-12,12-dioxo-24-oxa-12λ^6-thia-3,4,19,30-tetrazapentacyclo[23.3.1.1^2,5.0^15,23.0^16,20]triaconta-1(29),2(30),4,15,17,20,22,25,27-nonaen-6-yl)phenyl]acetic Acid] | C (a value greater than 10 °C and less than or equal to 25 °C is marked “C”) | B (a value between 12-20 is marked “B”)
Cn1nc2nc1-c1cc(ccc1F)Oc1c(F)cc3[nH]ccc3c1CCS(=O)(=O)CC(C)(C)CCCC2(C)c1cccc(CC2(C(=O)O)CC2)c1 (stereo not shown) [Compound 14, 1-[[3-(22,28-difluoro-3,6,10,10-tetramethyl-12,12-dioxo-24-oxa-12lambda6-thia-3,4,19,30-tetrazapentacyclo[23.3.1.12,5.015,23.016,20]triaconta-1(29),2(30),4,15,17,20,22,25,27-nonaen-6-yl)phenyl]methyl]cyclopropanecarboxylic Acid] | C (a value greater than 10 °C and less than or equal to 25 °C is marked “C”) | B (a value between 12-20 is marked “B”)
CC(Oc1cccc(C2(C)CCCC(C)(C)CS(=O)(=O)CCc3c(c(F)cc4[nH]ccc34)Oc3ccc(F)c(c3)-c3nc2nn3C)c1)C(=O)O (stereo not shown) [Compound 19B, 2-[3-[22,28-difluoro-3,6,10,10-tetramethyl-12,12-dioxo-24-oxa-12 6-thia-3,4,19,30-tetrazapentacyclo[23.3.1.12,5.015,23.016,20]triaconta-1(29),2(30),4,15,17,20,22,25,27-nonaen-6-yl]phenoxy]propanoic Acid] | A (an ΔTagg value less than or equal to 5 °C is marked “A”) | A (a TECC value less than 12 is marked “A”)
CC1(C)CCCC(c2cccc(CCC(=O)O)c2)n2ccc(n2)-c2cccc(c2)Oc2c(F)cc3[nH]ccc3c2CCS(=O)(=O)C1 (stereo not shown) [Compound 23, 3-[3-(22-Fluoro-10,10-dimethyl-12,12-dioxo-24-oxa-12lambda6-thia-5,19,30-triazapentacyclo[23.3.1.12,5.015,23.016,20]triaconta-1(29),2(30),3,15,17,20,22,25,27-nonaen-6-yl)phenyl]propanoic Acid] | C (a value greater than 10 °C and less than or equal to 25 °C is marked “C”) | B (a value between 12-20 is marked “B”)
CC(Cc1cccc(C2CCCC(C)(C)CS(=O)(=O)CCc3c(c(F)cc4[nH]ccc34)Oc3cccc(c3)-c3ccn2n3)c1)C(=O)O (stereo not shown) [Compound 25, 3-[3-(22-Fluoro-10,10-dimethyl-12,12-dioxo-24-oxa-12lambda6-thia-5,19,30-triazapentacyclo[23.3.1.12,5.015,23.016,20]triaconta-1(29),2(30),3,15,17,20,22,25,27-nonaen-6-yl)phenyl]-2-methyl-propanoic Acid] | C (a value greater than 10 °C and less than or equal to 25 °C is marked “C”) | A (a TECC value less than 12 is marked “A”)
CC1(C)CCCC(c2cccc(CC(=O)O)c2)n2ccc(n2)-c2cc(ccc2F)Oc2c(F)cc3[nH]ccc3c2CCS(=O)(=O)C1 (stereo not shown) [Compound 26, 2-[3-(22,28-Difluoro-10,10-dimethyl-12,12-dioxo-24-oxa-12lambda6-thia-5,19,30-triazapentacyclo[23.3.1.12,5.015,23.016,20]triaconta-1(29),2(30),3,15,17,20,22,25,27-nonaen-6-yl)phenyl]acetic Acid] | C (a value greater than 10 °C and less than or equal to 25 °C is marked “C”) | C (a value between 20 and 80 is marked “C”)
CC1(c2cccc(CCC(=O)O)c2)CCCCCS(=O)(=O)CCc2c(c(F)cc3[nH]ccc23)Oc2ccc(F)c(c2)-c2ncc1[nH]2 (stereo not shown) [Compound 37, 3-[3-(22,28-Difluoro-6-methyl-12,12-dioxo-24-oxa-12λ6-thia-3,19,30-triazapentacyclo[23.3.1.12,5.015,23.016,20]triaconta-1(29),2,4,15,17,20,22,25,27-nonaen-6-yl)phenyl]propanoic Acid] | C (a value greater than 10 °C and less than or equal to 25 °C is marked “C”) | A (a TECC value less than 12 is marked “A”)
O=C(O)CCc1cccc(C2CCS(=O)(=O)CCc3cn(nn3)Cc3c(c(F)cc4[nH]ccc34)Oc3ccc(F)c(c3)-c3ncc2[nH]3)c1F (stereo not shown) [Compound 40, 3-[3-(24,30-Difluoro-9,9-dioxo-26-oxa-9lambda6-thia-3,13,14,15,21,33-hexazahexacyclo[25.3.1.12,5.112,15.017,25.018,22]tritriaconta-1(31),2,4,12(32),13,17,19,22,24,27,29-undecaen-6-yl)-2-fluoro-phenyl]propanoic Acid] | C (a value greater than 10 °C and less than or equal to 25 °C is marked “C”) | B (a value between 12-20 is marked “B”)
O=S1(=O)CCc2cn(nn2)Cc2c(c(F)cc3[nH]ccc23)Oc2ccc(F)c(c2)-c2ncc([nH]2)C(c2ccccc2F)CC1 (stereo not shown) [Compound 41, 24,30-Difluoro-6-(2-fluorophenyl)-26-oxa-9λ6-thia-3,13,14,15,21,33-hexazahexacyclo[25.3.1.12,5.112,15.017,25.018,22]tritriaconta-1(31),2,4,12(32),13,17,19,22,24,27,29-undecaene 9,9-dioxide] | C (a value greater than 10 °C and less than or equal to 25 °C is marked “C”) | A (a TECC value less than 12 is marked “A”)
